Measured values as given in US12005045B2, “Method of modulating TIGIT and PD-1 signalling pathways using 1,2,4-oxadiazole compounds” (AURIGENE ONCOLOGY LIMITED, priority 2018, dated 2024).

What was measured:
PD-L1 = target: T1, PD-L1 (Mus musculus, UniProt Q9EP73); experiment: Rescue of mouse splenocyte proliferation in the presence of recombinant PD-L1 (CFSE proliferation assay); assay type: cell-based; details: 100 nM compound; anti-CD3/CD28 stimulated mouse splenocytes + PD-L1; stimulated splenocytes = 100%; read-out: Percent rescue of splenocyte proliferation at 100 nM PD-L1 based assay
T1 construct: Fc (Fc chimera); purchased R&D Systems 1019-B7-100
T1 sequence (Q9EP73 19-238 limits assumed): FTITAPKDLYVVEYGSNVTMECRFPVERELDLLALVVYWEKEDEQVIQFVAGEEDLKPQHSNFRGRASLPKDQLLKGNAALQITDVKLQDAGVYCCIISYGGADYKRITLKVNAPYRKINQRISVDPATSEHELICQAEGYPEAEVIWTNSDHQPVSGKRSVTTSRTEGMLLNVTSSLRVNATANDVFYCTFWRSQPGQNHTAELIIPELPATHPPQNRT
Description: Recombinant mouse PD-L1 (rm-PDL-1, cat no: 1019-B7-100; R&D Systems) were used as the source of PD-L1.
Mouse splenocytes harvested from 6-8 weeks old C57 BL6 mice; RPMI 1640 (GIBCO, Cat #11875); DMEM with high glucose (GIBCO, Cat #D6429); Fetal Bovine Serum [Hyclone, Cat #SH30071.03]; Penicillin (10000 unit/mL)-Streptomycin (10,000 μg/mL) Liquid (GIBCO, Cat #15140-122); MEM Sodium Pyruvate solution 100 mM (100×), Liquid (GIBCO, Cat #11360); Nonessential amino acid (GIBCO, Cat #11140); L-Glutamine (GIBCO, Cat #25030); Anti-CD3 antibody (eBiosciences—16-0032); Anti-CD28 antibody (eBiosciences—16-0281); ACK lysis buffer (1 mL) (GIBCO, Cat #-A10492); Histopaque (density-1.083 gm/mL) (SIGMA 10831); Trypan blue solution (SIGMA-T8154); 2 mL Norm Ject Luer Lock syringe-(Sigma 2014-12); 40 μm nylon cell strainer (BD FALCON 35230); Hemacytometer (Bright line-SIGMA Z359629); FACS Buffer (PBS/0.1% BSA): Phosphate Buffered Saline (PBS) pH 7.2 (HiMedia TS1006) with 0.1% Bovine Serum Albumin (BSA) (SIGMA A7050) and sodium azide (SIGMA 08591); 5 mM stock solution of CFSE: CFSE stock solution was prepared by diluting lyophilized CFSE with 180 μL of Dimethyl sulfoxide (DMSO C2H6SO, SIGMA-D-5879) and aliquoted in to tubes for further use. Working concentrations were titrated from 10 μM to 1 μM. (eBioscience-650850-85); 0.05% Trypsin and 0.02% EDTA (SIGMA 59417C); 96-well format ELISA plates (Corning CLS3390); BD FACS caliber (E6016); Recombinant mouse B7-H1/PDL1 Fc Chimera, (rm-PD-L1 cat no: 1019-B7-100).
Splenocytes harvested in a 50 mL falcon tube by mashing mouse spleen in a 40 μm cell strainer were further treated with 1 mL ACK lysis buffer for 5 min at room temperature. After washing with 9 mL of RPMI complete media, cells were re-suspended in 3 mL of 1×PBS in a 15 mL tube. 3 mL of Histopaque was added carefully to the bottom of the tube without disturbing overlaying splenocyte suspension. After centrifuging at 800×g for 20 min at room temperature, the opaque layer of splenocytes was collected carefully without disturbing/mixing the layers. Splenocytes were washed twice with cold 1×PBS followed by total cell counting using Trypan Blue exclusion method and used further for cell based assays.
Splenocytes were cultured in RPMI complete media (RPMI+10% fetal bovine serum+1 mM sodium pyruvate+10,000 units/mL penicillin and 10,000 μg/mL streptomycin) and maintained in a CO2 incubator with 5% CO2 at 37° C.
CFSE is a dye that passively diffuses into cells and binds to intracellular proteins. 1×10^6 cells/mL of harvested splenocytes were treated with 5 μM of CFSE in pre-warmed 1×PBS/0.1% BSA solution for 10 min at 37° C. Excess CFSE was quenched using 5 volumes of ice-cold culture media to the cells and incubated on ice for 5 min. CFSE labelled splenocytes were further given three washes with ice cold complete RPMI media. CFSE labelled 1×10^5 splenocytes added to wells containing either MDA-MB231 cells (1×10^5 cells cultured in high glucose DMEM medium) or recombinant human PDL-1 (100 ng/mL) and test compounds. Splenocytes were stimulated with anti-mouse CD3 and anti-mouse CD28 antibody (1 μg/mL each), and the culture was further incubated for 72 h at 37° C. with 5% CO2. Cells were harvested and washed thrice with ice cold FACS buffer and % proliferation was analysed by flow cytometry with 488 nm excitation and 521 nm emission filters.
Percent splenocyte proliferation was analysed using cell quest FACS program and percent rescue of splenocyte proliferation by compound was estimated after deduction of % background proliferation value and normalising to % stimulated splenocyte proliferation (positive control) as 100%. • Stimulated splenocytes: Splenocytes+anti-CD3/CD28 stimulation • Background proliferation: Splenocytes+anti-CD3/CD28+PD-L1 • Compound proliferation: Splenocytes+anti-CD3/CD28+PD-L1+Compound • Compound effect is examined by adding required conc. of compound to anti-CD3/CD28 stimulated splenocytes in presence of ligand (PDL-1).

mPVR = experiment: Rescue of mouse CD8+ T-cell proliferation in the presence of recombinant mPVR (IL-2 ELISA readout); assay type: cell-based; details: mouse CD8+ T cells, anti-CD3 + mouse PVR, anti-TIGIT antibody = 100%; for Percent rescue of CD8+ T-cell proliferation at 100 nM mPVR based assay: 100 nM compound; for Percent rescue of CD8+ T-cell proliferation mPVR based assay: 1000 nM compound
Text: 96-well plates, Corning; RPMI, Cat No. R6504, Sigma; Easy Sep magnet, Cat No. 18000, Stem Cell; Easy Sep Mouse CD8 T Cell isolation kit, Cat No. 19853, Stem Cell; Corning® cell strainer, (70 μm) Cat No. 431751, Corning; Purified anti-mouse CD3 Abs, Cat No. 100201, Biolegend; Recombinant mouse PVR, Cat No. 6909-CD-050, R&D Systems; Recombinant mouse anti-TIGIT Ab, Cat No. 142101, Biolegend; FBS, Cat No. SH30070.03, Hyclone; Mouse IL-2 ELISA Kit, R&D System Cat no DY402; Mouse IFN-γ ELISA Kit R&D Systems Cat no. DY485; Sterile PBS; FicollHistopaque, Cat No. 10831-6X100ML, Sigma
Spleen was collected from C57BL/6 male mice with 6-8 weeks of age. Splenocytes were isolated by slowly crushing the spleen between the sterile glass slides in RPMI+10% FBS and passing it through the 70 μm strainer. Cell suspension was centrifuged at 912×g for 10 minutes at room temperature and discarded the supernatant. Splenocytes were resuspended in RPMI+10% FBS (Complete RPMI). Resuspended splenocytes were overlaid on Ficoll Histopaque-1083 in a 50 ml Tarson tubes. Overlaid cells were centrifuged at 584×g for 30 minutes at room temperature without break. A clear buffy coat was carefully aspirated into sterile PBS. Isolated cells were washed using PBS and resuspended in complete RPMI medium to get a suspension of about 5×10^7 cells/ml. Mouse CD8^+ T cell were isolated by using EasySep Mouse CD8+ T Cell Isolation kit, as per manufacturers instruction.
96-well cell culture plate was coated with Purified anti-mouse CD3, 1 μg/mL (50 μL/well) and Recombinant Mouse PVR Fe Chimera, 0.5 μg/mL (50 ul/well) for 4 hours at 37° C. After 4 hours, the coated plate was washed with sterile PBS. Mouse CD8+ T cells isolated from spleen were added at 0.2 million/well ([…]) concentration into a 96-well cell culture plate. Test compound at various concentrations prepared in water or DMSO was added in respective wells (20 μL/well) so as to make the total volume 200 μL/well. The plates were incubated in 37° C. CO2 incubator for 3 days. On the 3rd day, cell supernatant was collected to determine cytokine levels (IL-2 or IFN-7) using ELISA. The extent of CD8+ T cell proliferation in presence or absence of test compound was measured by analysing the amount of IL-2 or IFN-7 in the culture supernatants using mouse IL-2 or IFN-7 ELISA kits as per manufacture instructions. Recombinant mouse anti-TIGIT antibody was used as positive control to determine the increased proliferation of CD8+ T cells.
Percent CD8+ T cell proliferation was analysed by measuring IL-2 levels using IL-2 ELISA kit and percent rescue of CD8+ T cell by test compound was estimated after deduction of % background proliferation value and normalising to % stimulated CD8+ T cell proliferation by anti-TIGIT antibody (positive control) as 100%.

[1] = tested on: CT26 syngeneic colon adenocarcinoma; experiment: Efficacy study in the CT-26 syngeneic (Balb/c male) mouse tumor model; assay type: in vivo; details: 14 days, CT26 tumor bearing mice
Description: The objective of this study was to evaluate anti-tumor activity of Compound 19 in a CT26 syngeneic colon adenocarcinoma model.
CT26 cell line was procured from ATCC, maintained and stored at ADTL-Bangalore cell line repository. One vial of CT26 cell line was thawed and revived in T-150 cm^2 flask with RPMI medium supplemented with 10% FBS (Gibco), 10 mM 4-(2-hydroxyethyl)-1-piperazineethanesulfonic acid (HEPES), 1 mM sodium pyruvate, 4.5 g/L Glucose, 1% penicillin streptomycin (Sigma) and 1.5 g/L sodium bicarbonate. The flask with CT26 cells at cell density 0.25 million/ml was incubated at 37±1° C. incubator supplied with 5% carbon dioxide. Cell expansion was carried out in T-150 cm^2 flasks and cell density was maintained between 0.25 […], with cell splitting every alternate day. […] Supernatant was discarded and cell pellets were suspended in media and counted using hemocytometer. […]
When the mean tumor volumes reached approximately 30±5 mm^3, the animals were randomized based on tumor volumes into five groups (G1 to G5) of ten animals (N=10) each as mentioned below. The treatment was continued for a period of 14 days after which the overall efficacy and tolerability were evaluated based on tumor volume and body weight changes observed during the treatment period. […]

activation at 0.1 µM (PD-L1)	SMILES	Percent rescue of CD8+ T-cell proliferation at 100 nM mPVR based assay (mPVR)	also measured
39%	CC(O)[C@H](NC(=O)N[C@@H](Cc1cnc[nH]1)c1nc([C@@H](N)Cc2ccc(O)cc2)no1)C(=O)O (stereo partly shown) [Compound 7]		
22%	N[C@@H](CCC(=O)O)c1noc([C@H](Cc2ccc(O)cc2)NC(=O)N[C@@H](Cc2ccccc2)C(=O)O)n1 [Compound 4]		
11%	CC(O)[C@H](NC(=O)N[C@@H](Cc1ccc(O)cc1)C(=O)O)c1nc([C@@H](N)Cc2c[nH]cn2)no1 (stereo partly shown) [Compound 3]	59%	
27%	CC(C)[C@H](N)c1noc([C@@H](NC(=O)N[C@@H](CCC(N)=O)C(=O)O)C(C)O)n1 (stereo partly shown) [Compound 5]		Percent rescue of CD8+ T-cell proliferation mPVR based assay (mPVR): (17 @ 1000 nM) %
84%	CC(O)[C@H](NC(=O)NCc1nc([C@@H](N)CC(=O)O)no1)C(=O)O (stereo partly shown) [Compound 2]	14%	
99%	CC(O)[C@H](N)c1noc([C@H](Cc2ccc(O)cc2)NC(=O)N2CCC[C@H]2C(=O)O)n1 (stereo partly shown) [Compound 19]	72%	tumor growth inhibition ([1]; 10 mg/kg qd oral): 42%; tumor growth inhibition ([1]; 30 mg/kg qd oral, statistically significant compared to vehicle): 53%
35%	CC(O)[C@H](N)c1noc([C@H](Cc2ccccc2)NC(=O)N2CCC[C@H]2C(=O)O)n1 (stereo partly shown) [Compound 20]		
	CC(O)[C@H](N)c1noc([C@@H](N)Cc2ccccc2)n1 (stereo partly shown) [Compound 16]		Percent rescue of CD8+ T-cell proliferation mPVR based assay (mPVR): 72 (@ 1000 nM) %
	CC(O)[C@H](N)c1noc([C@@H](NC(=O)N[C@@H](Cc2ccccc2)C(=O)O)C(C)O)n1 (stereo partly shown) [Compound 9]	56.9%	
15%	CCC(C)[C@H](NC(=O)N[C@@H](CS)c1nc([C@@H](N)Cc2ccccc2)no1)C(=O)O (stereo partly shown) [Compound 6]		
	CC(O)[C@H](NC(=O)NCc1nc([C@@H](N)CCC(=O)O)no1)C(=O)O (stereo partly shown) [Compound 8]	14.6%	
17%	N[C@@H](Cc1ccc(O)cc1)c1noc([C@@H]2CCCN2C(=O)N[C@@H](CC(=O)O)C(=O)O)n1 [Compound 1, ((S)-2-(3-((S)-1-amino-2-(4-hydroxyphenyl)ethyl)-1,2,4-oxadiazol-5-yl)pyrrolidine-1-carbonyl)-L-aspartic acid]	98%	
